Key:
[1] = test system: Sp1 promoter; test: Sp1 promoter luciferase reporter in PANC-1 cells; type: cell-based, human; details: 100 μg/ml BVZ or 0.1 μM MIT
Method: (§1) FIG. 15. Effects of treatment with BVZ and MIT on Sp1 recruitment into the Sp1 promoter in human pancreatic cancer cells in vitro and in vivo. A, schematic structures of the minimal Sp1 promoters. The nucleotide positions and sequences of Sp1-binding sites and polymerase chain reaction forward and reverse primers flanking those sites for ChIP assay are shown. B, Sp1 and VEGF promoter reporter constructs were transfected into PANC-1 cells in triplicate and incubated for 12 hours. The cells were then incubated for another 24 hours in a medium alone or a medium containing 100 μg/ml BVZ or 0.1 μM MIT. Total protein lysates were harvested from the cell cultures for measurement of Sp1 and VEGF promoter activity using a luciferase assay kit. The relative Sp1 and VEGF promoter activities were assessed, and the activity in treated groups was expressed as the fold change of that in their respective control groups. C and D, chromatin was extracted from (C) PANC-1 cells that were incubated in vitro for 2 days in a medium alone or a medium containing 100 μg/ml BVZ or 0.1 μM MIT and (D) tumors formed by PANC-1 cells in nude mice that received treatment as described in FIG. 2A. […]
Sp1 promoter constructs and analysis of Sp1 promoter activity. […] The reporter luciferase activity was measured 48 hours later using a luciferase assay kit (Promega, Madison, Wis.). […]

[2] = test system: Sp1, EGFR, and VEGF protein expression; test: Western blot of gene expression in PANC-1 cells in vitro; type: cell-based, human; details: 100 μg/ml BVZ, 6 to 48 hours
Method: FIG. 14. Effects of treatment with BVZ and MIT on the growth of and gene expression in human pancreatic cancer cells in vitro. (A) BxPC3 and (B) PANC-1 cells were incubated for 1 to 5 days in a medium alone or a medium containing 100 μg/ml BVZ. The viable cells were counted every 24 hours. C, PANC-1 cells were incubated for 6 to 48 hours in a medium alone or a medium containing 100 μg/ml BVZ. Total protein lysates were harvested from the cell cultures, and the level of Sp1, EGFR, and VEGF protein expression was determined using Western blot analysis. Equal protein-sample loading was monitored by probing the same membrane filter with an anti-glyceraldehyde-3-phosphate dehydrogenase antibody (GAPDH). […] (D) Cytotoxicity was assessed using the MTT assay, and (E) the level of gene expression was determined using Western blot analysis. NS, nonspecific.
Western blot analysis. Whole-cell lysates were prepared from human pancreatic cancer cell lines and tissues (23). […] Equal protein-sample loading was monitored by probing the same membrane filter with antibodies against anti-β-actin or glyceraldehyde-3-phosphate dehydrogenase (GAPDH) (23). The probe proteins were detected using the Amersham enhanced chemiluminescence system according to the manufacturer's instructions. […]

[3] = test system: Sp1 recruitment into the Sp1 promoter; test: ChIP assay, PANC-1 cells in vitro; type: cell-based, human; details: 100 μg/ml BVZ or 0.1 μM MIT, 2 days
Method: as §1

[4] = test system: PANC-1 cells; test: PANC-1 subcutaneous xenograft, tumor volume and body weight; type: in vivo, nude mice; details: BVZ 25 μg, MIT 0.10 mg/kg, or B+M
Method: FIG. 11. Synergistic antitumor effects of treatment with BVZ and MIT in xenograft models of human pancreatic cancer. […] C, representative tumor sizes in each group of BxPC3 model mice.
Next, we performed experiments using both BxPC3 and PANC-1 tumor cell models in which we administered PBS, BVZ (25 μg), MIT (0.10 mg/kg), or B+M to a group of nude mice.

[5] = test system: H727 cells; test: H727 carcinoid subcutaneous xenograft
Method: (§2) H727 carcinoid tumor volume during treatment course in nude mouse xenograft model for various doses and administration routes of mithramycin.
(§3) H727 and BON-1 cells were injected into the subcutis of nude mice (n=5). When tumors reached around 4 mm in diameter, the animals received different doses of MIT (0.10 [M-10], 0.20 [M-20], and 0.40 [M-40] mg/kg) via intraperitoneal injection twice a week. Tumors were measured once every week, and at each measurement, the mean±standard deviation (SD) tumor volume in the five mice in each group was calculated (A). […] This was one representative experiment of two with similar results.
(§4) H727 and BON-1 cells were injected subcutaneously into nude mice. […] A. Tumors were measured once every week, and at each measurement, the mean±SD tumor volume in the five mice in each group was calculated. B. Mouse body weights were measured. The asterisks indicate the statistical significance (P<0.01) in a comparison between the treated and respective control groups. This was one representative experiment of two with similar results.
(§5) H727 carcinoid cells were injected into the subcutis of groups of mice (n=5). When tumors reached 4 mm in diameter, animals received injections of PBS (controls), MIT (0.10, 0.20, or 0.40 mg/kg (s.c. or i.p.) twice a week. Tumors were measured once every week, and at each measurement, the mean±SD tumor volume in the five mice in each group was calculated.
(§6) Mithramycin-A (MIT, 1 mg/vial crystal powder; lot 055K4011) was purchased from Sigma Chemical Co. (St. Louis, Mo.) and diluted in sterile water. BVZ (25 mg/ml; NDC 50242-060-01) from Genentech, Inc. (South San Francisco, Calif.) was purchased. For animal experiments, MIT (0.1 to 0.4 mg/kg body weight) and BVZ (25 to 100 μg/mouse) were administered by intraperitoneal or subcutaneous injections twice a week or as otherwise stated.
(§7) Female athymic BALB/c nude mice were purchased from The Jackson Laboratory (Bar Harbor, Me.). The mice were housed in laminar flow cabinets under specific pathogen-free conditions and used when they were 8 weeks old.
(§8) H727 and BON-1 tumor cells were injected into the subcutis of mice as described in the Materials and Methods. MIT treatment started when tumor sizes reached around 3-4 mm in diameters. […] Moreover, the residual tumors were harvested and angiogenesis was assessed by CD31 staining.
(§9) Specifically, we injected H727 and BON-1 cells subcutaneously into nude mice. […] We also administered PBS injections to animals as controls.
(§10) H727 and BON-1 cells were injected subcutaneously into nude mice and then administered treatment to them as described in FIG. 20.

[6] = H727 carcinoid subcutaneous xenograft; details: BVZ; abstract does not name the model
Method: as §2, §3, §4, §5, §6, §7, §8, §9, §10

**Q.** Which results are given for bevacizumab [BVZ]?
**A.** Sp1 promoter activity [1]: did not suppress Sp1 promoter activity; expression of Sp1, VEGF and EGFR [2]: did not affect the expression of Sp1 or its major downstream molecules; Sp1 recruitment to its own promoter [3]: did not affect Sp1 recruitment; antitumor activity at low dose [4]: marginal antitumor activity; antitumor activity at low dose ([5]; BVZ 25 μg, MIT 0.10 mg/kg, alone or combined, i.p. twice a week): marginal antitumor activity; body weight ([5]; BVZ alone): no discernable effects on body weight; animal survival ([5]; compared with PBS, 160 days): slightly increased survival rate; human neuroendocrine tumor growth [6]: suppressed human neuroendocrine tumor growth in nude mice in a dose-dependent manner

Source: US20080274121A1, “Inhibition of Angiogenesis by Mithramycin” (priority 2007, published 2008)
